Source: publication PMC6959561, “Expression of acyl-CoA-binding protein 5 from Rhodnius prolixus and its inhibition by RNA interference” (PLoS ONE, 2020)

Target: T1, RpACBP-5 (acyl-CoA-binding protein 5) (Rhodnius prolixus, UniProt M4WG04)
T1 construct: recombinant RpACBP-5 expressed in E. coli BL21 (DE3) (GenBank KC417418; 261 bp)
Assay: isothermal titration calorimetry (VP-ITC, […]°C, pH […])

T1 sequence (M4WG04 entry or part of it): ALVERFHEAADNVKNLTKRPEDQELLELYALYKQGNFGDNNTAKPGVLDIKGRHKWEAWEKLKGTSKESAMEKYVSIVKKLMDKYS

CCCCCCCCCCCC(=O)SCCNC(=O)CCNC(=O)[C@H](O)C(C)(C)COP(=O)(O)OP(=O)(O)OC[C@H]1O[C@@H](n2cnc3c(N)ncnc32)[C@H](O)[C@@H]1OP(=O)(O)O [lauroyl-CoA]
Kd: 399 ± 266 nM
